From article PMC2764262 (Experimental cell research, 2008)

Experiments:
[1] = Circular dichroism spectroscopy, secondary structure; assay type: physicochemical; settings: 1 mg/ml in Hanks balanced salt solution, 37 °C, up to day 6 (WT: by day 3)
[2] = system: human brain microvascular endothelial cells (HBMEC); test: BrdU labeling assay, cell proliferation; assay type: cell-based; settings: 25 µM peptide, 48 h, 0.1% FBS, no FGF-2
[3] = system: human brain microvascular endothelial cells (HBMEC); test: BrdU labeling assay, proliferation induced by FGF-2; assay type: cell-based; settings: FGF-2 20 ng/ml, 48 h
[4] = system: human brain microvascular endothelial cells (HBMEC); test: Pseudo-capillary sprouting, microcarrier culture in fibrin gel; assay type: cell-based; settings: HBMEC on microcarriers in fibrin gel, FGF-2 20 ng/ml, 5 µM peptide, day 2
[5] = system: FGF-2; test: FGF-2 production by Western blotting; assay type: cell-based, human; settings: HBMEC, 5 µM peptide, 18 h; Western blot
[6] = system: FGFR-1; test: FGFR-1 phosphorylation; assay type: cell-based, human; settings: HBMEC, 5 µM peptide, FGF-2 20 ng/ml 15 min; IP anti-FGFR-1, anti p-Tyr
[7] = system: Akt; test: Akt phosphorylation by Western blotting; assay type: cell-based, human; settings: HBMEC, 5 µM peptide, 30 min, FGF-2 20 ng/ml; Western blot
[8] = system: caspase-3; test: Cleaved caspase-3 expression by Western blotting; assay type: cell-based, human; settings: HBMEC, 5 µM peptide, 18 h, FGF-2 20 ng/ml
[9] = Peptide solubility on aging; settings: 1 mg/ml in Hanks' Balanced Salt Solution, 37 °C, up to 6 days; O.D. 280 nm after centrifugation

Question: What does the source list for “E22Q: Synthetic Aβ (1–40) peptide bearing the E22Q (Dutch) mutation”?
Answer: secondary structure by CD on further incubation [1]: the β-sheet content increased; inhibition of cell proliferation (BrdU incorporation) [2]: total inhibition; inhibition of FGF-2-induced BrdU incorporation ([3]; 1 µM peptide): 60%; inhibition of FGF-2-induced BrdU incorporation ([3]; concentrations higher than 1 µM (up to 25 µM)): > 90%; reduction of pseudo-capillary sprouting area [4]: nearly suppressed; FGF-2 expression [5]: decreased expression; FGFR-1 phosphorylation in response to FGF-2 [6]: reduced phosphorylation to levels observed in quiescent cells; FGF-2-induced Akt phosphorylation [7]: marked reduction; caspase-3 activation with concomitant FGF-2 administration [8]: failed to prevent caspase-3 activation; solubility relative to the other peptides [9]: lower values than those of WT
